Assay results from EP0475231A1, “Benzodiazepines” (priority 1990, dated 1992).
Where two headings read alike, the source gives them in different places.

How the values were obtained:
HIV-1 NIT strain = experiment: anti-HIV activity test: reduction of immuno-fluorescent positive (viral antigen) cells in infected CD4+ CEM cells; assay type: cell-based; settings: Human immunodeficiency virus 1, CCRF-CEM, 96 h, concentration which reduces the number of immuno-fluorescent positive cells by 50%, MOI 1, four days after infection, read-out: IC₅₀
Procedure: The compounds I were tested for the inhibition of HIV-cytopathic effect and the reduction of cell-associated viral antigens in an experiment run as follows:
High titer virus stocks (HIV-1 NIT strain) were grown in CD₄+ CR10 cells in RMPI-1640 media (Gibco Laboratories) supplemented with 10% fetal calf serum and 0.1 mg/ml Gentamicin. The collected media were filtered and the virus isolates were concentrated 100 fold and stored at -80°C. CD₄+ CEM cells, propagated in the same medium, were incubated for 60 minutes at 37°C with diluted stock virus at multiplicity of infection (MOI) equal to 1. Cells were washed with phosphate buffered saline and resuspended in the medium at 2 x 10⁵ cells/ml. Various quantities of the test compounds in DMSO were added. Four days after infection, the number of live cells were counted by trypan blue exclusion (Proc. Natl. Acad. Sci. 83, 1986, 1911). At the same time, aliquots of cells were fixed with acetone and stained with antibodies from AIDS patients, followed by a second staining with fluorescein-conjugated goat anti-human IgG (Cappel). Cells stained with the fluorescent antibody were counted using a fluorescence microscope and the results were expressed as percentage of the total number of cells counted (J. Med. Virol. 19, 1986, 325).
The results of this anti-HIV activity test, expressed in IC₅₀ (µM), i.e. the concentration of the test compound which reduces the number of immuno-fluorescent positive cells by 50%, are given in Table I below.

HIV-1 RT = biological target: T1, HIV-1 RT (Human immunodeficiency virus type 1 group M subtype B, UniProt P03366); experiment: HIV-1 RT inhibition with recombinant DNA-derived enzyme, poly(rA)·oligo(dT)10 template/primer, 3H-TTP incorporation; assay type: biochemical
T1 construct: made in house
Procedure: Compounds of the present invention were also examined for their ability to inhibit HIV-1 RT using recombinant DNA-derived enzyme (S.F.J. Le Grice and F. Gruninger-Leitch, European Journal of Biochemistry 187:307-314 (1990)) in […] volume assay mixtures. Mixtures contained 50mM Tris-HCl (pH 8.0), 25mM KCl, 4mM MgCl₂, 5mM dithiothreitol (DTT), 0.05% Triton X-100, […] ³H-TTP (2Ci/mmol), 1mg poly(rA)·oligo(dT)₁₀ (20:1) as template/primer, test compound at the desired concentration, and an appropriate quantity of HIV RT, usually 0.01 to 0.1mg. The assay mixtures were incubated at 37°C for 10 minutes and the reactions were stopped by the addition of 10% trichloroacetic acid (TCA). Yeast RNA ([…] per reaction) was added and the reaction products were precipitated at 4°C for 30 minutes. TCA-precipitated material was collected by filtration and the bound radioactivity determined by counting using a liquid scintillation counter. The concentration of compound required to inhibit the activity of HIV-RT by fifty percent (IC₅₀) was determined from a multiple dose-effect analysis program (J. Chou and I. C. Chou, Dose Effect Analysis with Microcomputers, Elsevier Sciences Publishers, Amsterdam 1987).

HIV-TAT = experiment: anti-HIV-TAT assay: SeAP reporter under HIV-LTR versus RSV-LTR in transfected COS cells; assay type: cell-based; settings: 1-50 µM, specific inhibition of SeAP under HIV-LTR minus RSV-LTR, 48 hours after addition, average of at least three tests, grades not defined
Procedure: The compounds of formula I were also tested for anti-HIV-TAT activity in an assay comprising the following steps: • (a) putting both the expression of the Secreted Alkaline Phosphatase (SeAP) gene and the viral transactivator TAT gene under the control of the HIV promoter LTR responsive to the action of the HIV transactivator TAT; • (b) transfecting cultured mammalian cells with plasmids which contain the gene constructs of (a) above and cause cellular production of the transactivating factor TAT and SeAP; • (c) adding the agent to be tested, here the compounds of formula I; and determining the amount of SeAP produced, by measuring SeAP enzymatic activity, whereby inhibition of SeAP production correlates with the anti-TAT inhibition activity.
In this assay, the inhibition of SeAP positively correlates with anti-TAT activity. The greater the ability of an agent to inhibit SeAP, the greater is its anti-TAT activity.
Specifically, with respect to the results reported below, the anti-HIV-TAT assay was run as follows:
At 24 hours post transfection 1, 10, 25 and 50 µM of a test compound of formula I was added to the culture media of COS cells transfected with two plasmids, one containing the reporter gene which codes for SeAP under control of HIV-LTR, and the other containing the HIV-TAT gene also under control of HIV-LTR. The alkaline phosphatase activity of the media was assayed 48 hours after addition of test compound with a colorimetric assay using p-nitrophenylphosphate as the substrate.
The anti-HIV-TAT activities of the test compounds were determined by measuring the amount of alkaline phosphatase in the supernatant media of cultures of cells in which SeAP gene expression was under the control of the HIV LTR promoter. The specific inhibitory activities of the test compounds were calculated according to the formula: 100[(1-A/B)-(1-C/D)] [formula] where A and B are the alkaline phosphatase activites produced by HIV-LTR/SeAP in the presence and absence, respectively, of test compound, and C and D are the alkaline phosphatase activities produced by RSV-LTR/SeAP in the presence and absence, respectively, of test compound. The concentrations tested ranged from 1-50 µM. The results provided are the average of at least three tests. The test compound was added 24 hours after cells were transfected with the plasmids when SeAP specific mRNA and protein were already present and the protein was very stable. […]

[1] = recombinant HIV-1 RT, 37°C, 10 minutes, read-out: IC₅₀

Structure (SMILES)	IC50 (HIV-1 NIT strain) [µM]	IC50 (HIV-1 RT) [µM]	Anti-HIV-TAT activity (HIV-TAT)	IC50 (HIV-1 RT; [1]) [µM]
CN(C)C1=Nc2ccc(Cl)cc2C(c2ccc[nH]2)=NC1 [N(CH₃)₂, 7-chloro-N,N-dimethyl-5-(1H-pyrrol-2-yl)-3H-1,4-benzodiazepin-2-amine]	1 to 3	7.3	Medium/High	
Clc1ccc2c(c1)C(c1ccc[nH]1)=NCC(N1CCCC1)=N2 [1-pyrrolidinyl, 7-chloro-5-(1H-pyrrol-2-yl)-2-(1-pyrrolidinyl)-3H-1,4-benzodiazepine]	0.8 to 5		Medium/High	10.2
Clc1ccc2c(c1)C(c1ccc[nH]1)=NCC(N1CCNCC1)=N2 [1-piperazinyl, 7-chloro-2-(1-piperazinyl)-5-(1H-pyrrol-2-yl)-3H-1,4-benzodiazepine]			Low	18
CSC1=Nc2ccc(Cl)cc2C(c2ccc[nH]2)=NC1 [SCH₃, 7-chloro-2-(methylthio)-5-(1H-pyrrol-2-yl)-3H-1,4-benzodiazepine]	5 to 10	1.6	Low/Medium	
OCCNC1=Nc2ccc(Cl)cc2C(c2ccc[nH]2)=NC1 [NHCH₂CH₂OH, 7-chloro-N-(2-hydroxyethyl)-5-(1H-pyrrol-2-yl)-3H-1,4-benzodiazepin-2-amine]	2 to 5	8.9	Medium	
NCCNC1=Nc2ccc(Cl)cc2C(c2ccc[nH]2)=NC1 [NHCH₂CH₂NH₂, N-[7-chloro-5-(1H-pyrrol-2-yl)-3H-1,4-benzodiazepin-2-yl]-1,2-ethanediamine]			Medium	
OC1CCN(C2=Nc3ccc(Cl)cc3C(c3ccc[nH]3)=NC2)C1 (racemic) [3-OH-1-pyrrolidinyl, rac-1-[7-chloro-5-(1H-pyrrol-2-yl)-3H-1,4-benzodiazepin-2-yl]-3-pyrrolidinol]	1 to 5		High	6.4
Clc1ccc2c(c1)C(c1ccc[nH]1)=NCC(N1CCCCC1)=N2 [1-piperidinyl, 7-chloro-2-(1-piperidinyl)-5-(1H-pyrrol-2-yl)-3H-1,4-benzodiazepine]	2		Medium/High	10.4
C=CCNC1=Nc2ccc(Cl)cc2C(c2ccc[nH]2)=NC1 [NHCH₂CH=CH₂, 7-chloro-N-(2-propenyl)-5-(1H-pyrrol-2-yl)-3H-1,4-benzodiazepin-2-amine]		4.2	Low	
COC1=Nc2ccc(Cl)cc2C(c2ccc[nH]2)=NC1 [OCH₃, 7-chloro-2-methoxy-5-(1H-pyrrol-2-yl)-3H-1,4-benzodiazepine]	1	1.5	Medium	
CCN(CC)C1=Nc2ccc(Cl)cc2C(c2ccc[nH]2)=NC1 [N(CH₂CH₃)₂, 7-chloro-N,N-diethyl-5-(1H-pyrrol-2-yl)-3H-1,4-benzodiazepin-2-amine]			Low/Medium	
Clc1ccc2c(c1)C(c1ccc[nH]1)=NCC(NC1CC1)=N2 [NH(cyclopropyl), 7-chloro-N-cyclopropyl-5-(1H-pyrrol-2-yl)-3H-1,4-benzodiazepin-2-amine]	0.8	5.4	Medium	
Clc1ccc2c(c1)C(c1ccc[nH]1)=NCC(Nc1ccccc1)=N2 [NHPh, 7-chloro-N-phenyl-5-(1H-pyrrol-2-yl)-3H-1,4-benzodiazepin-2-amine]		15.8		
NNC1=Nc2ccc(Cl)cc2C(c2ccc[nH]2)=NC1 [NHNH₂, 7-chloro-2-hydrazino-5-(1H-pyrrol-2-yl)-3H-1,4-benzodiazepine]	1		High	
COC(CNC1=Nc2ccc(Cl)cc2C(c2ccc[nH]2)=NC1)OC [NHCH₂CH(OCH₃)₂, 7-chloro-N-(2,2-dimethoxyethyl)-5-(1H-pyrrol-2-yl)-3H-1,4-benzodiazepin-2-amine]	1 to 5		Medium/High	
C#CCNC1=Nc2ccc(Cl)cc2C(c2ccc[nH]2)=NC1 [NHCH₂C≡CH, 7-chloro-N-(2-propynyl)-5-(1H-pyrrol-2-yl)-3H-1,4-benzodiazepin-2-amine]		2		
Clc1ccc2c(c1)C(c1ccc[nH]1)=NCC(NCc1ccccc1)=N2 [NHCH₂Ph, 7-chloro-N-(phenylmethyl)-5-(1H-pyrrol-2-yl)-3H-1,4-benzodiazepin-2-amine]	3	2.6	Low/Medium	
